Laboratory results: US9453040B2, “Glycodendrimers of polypropyletherimine” (priority 2010, dated 2016)

System: pro-inflammatory cytokines such as IL-6, IL-8, IL-1 beta, TNF-alpha and MIP-1 beta
Assay: Effect of unconjugated components on pro-inflammatory cytokines
Type: cell-based
Conditions: even at high doses

In the case of `N[C@H]1C(O)O[C@H](CO)[C@@H](O)[C@@H]1O` (stereo partly shown) [glucosamine], the “effect on pro-inflammatory cytokines such as IL-6, IL-8, IL-1 beta, TNF-alpha and MIP-1 beta” value is reported as “no effect”.
